Source: patent US5610174A, “Use of α1A -selective adrenoceptor agonists for the treatment of urinary incontinence” (priority 1995, dated 1997)
Read-outs that look alike come from different tables or passages of the source.

How the values were obtained:
human α2A adrenoceptor = target: T1, human α2A adrenoceptor (Homo sapiens, UniProt P08913); test: Inhibition of forskolin stimulated adenylyl cyclase, α2A; format: cell-based; details: for Emax: read-out: intrinsic activity (i.a.) α2A
T1 construct: expressed in transfected cells; host or cells: LM(tk-)
T1 sequence (P08913 1-465): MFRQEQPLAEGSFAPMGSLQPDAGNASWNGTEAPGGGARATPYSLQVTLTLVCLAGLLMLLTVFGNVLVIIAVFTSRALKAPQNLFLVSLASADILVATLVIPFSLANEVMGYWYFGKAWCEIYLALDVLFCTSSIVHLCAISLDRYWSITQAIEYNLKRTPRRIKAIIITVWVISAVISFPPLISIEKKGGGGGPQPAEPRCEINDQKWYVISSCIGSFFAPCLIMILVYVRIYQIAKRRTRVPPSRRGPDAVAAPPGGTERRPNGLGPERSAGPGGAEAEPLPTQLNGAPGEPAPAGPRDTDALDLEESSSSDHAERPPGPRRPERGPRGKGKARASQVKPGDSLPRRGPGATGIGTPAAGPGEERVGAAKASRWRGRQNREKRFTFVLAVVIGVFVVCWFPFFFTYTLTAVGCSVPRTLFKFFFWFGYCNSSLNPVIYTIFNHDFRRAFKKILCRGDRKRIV
Method: α2 -Adrenoceptor-Mediated Inhibition of Forskolin Stimulated Adenylyl Cyclase
The agonist activity of test compounds was assayed by measuring their ability to inhibit adenylyl cyclase in cells stably transfected with each of the three cloned human α2 -adrenoceptors. LM(tk-) cells expressing the α2A - or the α2C -, as well as Y1 cells expressing the α2B -adrenoceptor were used. […] The formation of cyclic AMP was measured in cultures incubated with DMEM containing 1 mM theophylline. […] The data from concentration-response curves was fitted to a four-parameter logistic equation, by non-linear regression analysis, to determine the pEC50 and intrinsic activity.

human α2C adrenoceptor = target: T2, human α2C adrenoceptor (Homo sapiens, UniProt P18825); test: Radioligand binding ([3H]rauwolscine) at cloned human α2C
T2 construct: expressed in transfected cells; host or cells: LM(tk-)
T2 sequence (P18825 1-462): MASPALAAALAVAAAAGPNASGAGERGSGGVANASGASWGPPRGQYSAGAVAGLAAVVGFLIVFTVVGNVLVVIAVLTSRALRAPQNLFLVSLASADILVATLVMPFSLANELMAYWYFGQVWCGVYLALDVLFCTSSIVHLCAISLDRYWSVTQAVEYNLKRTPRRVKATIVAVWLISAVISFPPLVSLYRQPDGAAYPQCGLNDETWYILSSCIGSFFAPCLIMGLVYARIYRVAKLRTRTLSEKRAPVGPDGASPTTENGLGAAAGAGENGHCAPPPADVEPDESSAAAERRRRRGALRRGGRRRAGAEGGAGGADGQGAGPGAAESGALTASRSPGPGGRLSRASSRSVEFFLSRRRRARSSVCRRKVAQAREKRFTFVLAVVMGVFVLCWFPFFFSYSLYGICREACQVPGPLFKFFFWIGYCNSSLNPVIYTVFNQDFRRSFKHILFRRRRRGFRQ
Method: To determine the affinity of compounds at the α2 receptors, LM(tk-) cell lines stably transfected with the genes encoding the α2A, α2B, and α2C receptors were used. Cell lysates were prepared as described above (see Radioligand Binding Assays), and suspended in 25 mM glycylglycine buffer (pH 7.6 at room temperature). Equilibrium competition binding assays were performed using [^3 H] rauwolscine (0.5 nM), and nonspecific binding was determined by incubation with 10 μM phentolamine. The bound radioligand was separated by filtration through GF/B filters using a cell harvester.

human 5-HT1Dα receptor = target: T3, human 5-HT1Dα receptor (Homo sapiens, UniProt P28221); test: Radioligand binding at human 5-HT1Dα
T3 construct: expressed in transfected cells; host or cells: LM(tk-) clonal cell line, designated Ltk-8-30-84, ATCC CRL 10421 (cell lysates)
T3 sequence (P28221 whole entry): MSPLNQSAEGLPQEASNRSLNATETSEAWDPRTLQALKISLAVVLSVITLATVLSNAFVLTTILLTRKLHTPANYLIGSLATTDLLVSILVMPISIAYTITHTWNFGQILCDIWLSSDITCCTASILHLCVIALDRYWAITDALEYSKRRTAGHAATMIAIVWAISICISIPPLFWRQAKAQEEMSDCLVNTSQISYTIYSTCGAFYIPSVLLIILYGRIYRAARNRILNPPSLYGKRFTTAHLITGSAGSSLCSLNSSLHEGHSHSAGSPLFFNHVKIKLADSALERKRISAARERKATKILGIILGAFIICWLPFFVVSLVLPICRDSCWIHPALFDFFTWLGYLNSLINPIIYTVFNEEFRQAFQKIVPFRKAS
Method: (§1) Human Serotonin Receptors
5-HT1Dα, 5-HT1Dβ, 5-HT1E, 5-HT1F, and 5-HT7 Receptors: The cell lysates of LM(tk-) clonal cell line stably transfected with the genes encoding each of these 5-HT receptor-subtypes were prepared as described above. The cell line for the 5-HT1Dαreceptor, designated as Ltk-8-30-84, was deposited on Apr. […] The cell for the 5-HT1Dβ receptor, designated as Ltk-11, was deposited on Apr. […] The cell line for the 5-HT1E receptor, designated 5-HT1E -7, was deposited on Nov. […] The cell line for the 5-HT1F receptor, designated L-5-HT1F, was deposited on Dec. […] The cell line for the 5-HT7 receptor, designated as L-5-HT-4B, was deposited on Oct. […] These preparations were suspended in 50 mM Tris-HCl buffer (pH 7.4 at 37° C.) containing 10 mM MgCl2, 0.2 mM EDTA, 10 μM pargyline, and 0.1% ascorbate. […] Nonspecific binding was determined in the presence of 10 μM serotonin. The bound radioligand was separated by filtration through GF/B filters using a cell harvester.

human 5-HT1E receptor = target: T4, human 5-HT1E receptor (Homo sapiens, UniProt P28566); test: Radioligand binding at human 5-HT1E; details: [3H]serotonin; for Ki: read-out: pKi 5-HT1E (converted)
T4 construct: expressed in transfected cells; host or cells: LM(tk-) clonal cell line, designated 5-HT1E-7, ATCC CRL 10913 (cell lysates)
T4 sequence (P28566 whole entry): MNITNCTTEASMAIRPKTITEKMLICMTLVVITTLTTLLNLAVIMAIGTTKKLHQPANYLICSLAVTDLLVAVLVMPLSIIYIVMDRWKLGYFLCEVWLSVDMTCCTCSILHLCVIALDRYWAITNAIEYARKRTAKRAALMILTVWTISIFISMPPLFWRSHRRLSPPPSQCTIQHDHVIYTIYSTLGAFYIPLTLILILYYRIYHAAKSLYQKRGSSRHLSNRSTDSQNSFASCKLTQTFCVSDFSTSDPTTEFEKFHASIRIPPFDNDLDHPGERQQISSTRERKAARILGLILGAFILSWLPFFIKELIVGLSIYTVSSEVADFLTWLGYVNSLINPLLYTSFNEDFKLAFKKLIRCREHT
Method: as §1
5-HT1Dα, 5-HT1Dβ, 5-HT1E, 5-HT1F, and 5-HT7 Receptors: The cell lysates of LM(tk-) clonal cell line stably transfected with the genes encoding each of these 5-HT receptor-subtypes were prepared as described above. The cell line for the 5-HT1Dαreceptor, designated as Ltk-8-30-84, was deposited on Apr. 17, 1990, and accorded ATCC Accession No. CRL 10421. The cell for the 5-HT1Dβ receptor, designated as Ltk-11, was deposited on Apr. 17, 1990, and accorded ATCC Accession No. CRL 10422. The cell line for the 5-HT1E receptor, designated 5-HT1E -7, was deposited on Nov. 6, 1991, and accorded ATCC Accession No. CRL 10913. The cell line for the 5-HT1F receptor, designated L-5-HT1F, was deposited on Dec. 27, 1991, and accorded ATCC Accession No. CRL 10957. The cell line for the 5-HT7 receptor, designated as L-5-HT-4B, was deposited on Oct. 20, 1992, and accorded ATCC Accession No. CRL 11166. These preparations were suspended in 50 mM Tris-HCl buffer (pH 7.4 at 37° C.) containing 10 mM MgCl2, 0.2 mM EDTA, 10 μM pargyline, and 0.1% ascorbate. […] Nonspecific binding was determined in the presence of 10 μM serotonin. The bound radioligand was separated by filtration through GF/B filters using a cell harvester.

[1] = Table 3, agonists, read-out: pKi α2C (converted)

SMILES | EC50 (human α2A adrenoceptor) [nM] | Emax (human α2A adrenoceptor) [%] | Ki (human α2C adrenoceptor) [nM] | Ki (human 5-HT1E receptor) [nM] | Ki (human α2C adrenoceptor; [1]) [nM] | also measured
C[C@H](N)[C@H](O)c1ccccc1 [(-)-norephedrine] | 7.94 | 50 | 3160 | – | – | –
CNCCc1ccc(O)c(NS(C)(=O)=O)c1 [SK&F 102652] | – | 0 | – | – | – | pEC50 α2A (human α2A adrenoceptor; agonist, inhibition of forskolin stimulated adenylyl cyclase): < 4.0; pKi 5-HT1Dα (human 5-HT1Dα receptor; [3H]serotonin): 5.9; pKi 5-HT1E (human 5-HT1E receptor): 5.3
CS(=O)(=O)Nc1c(O)ccc2c1CCCC2C1=NCCN1 (racemic) [Compound A-61603, (±)-N-[5-(4,5-Dihydro-1H-imidazol-2-yl)-2-hydroxy-5,6,7,8-tetra-hydronaphthalen-1-yl]methanesulfonamide] | – | – | – | 5010 | 631 | Ki (human 5-HT1Dα receptor; [3H]serotonin, read-out: pKi 5-HT1Dα (converted)): 2510 nM
CN[C@@H](C)[C@H](O)c1ccccc1 [(-)-ephedrine] | 251 | 30 | 7940 | – | – | –
COc1ccc(SC)c2c1C[C@@H]1[C@@H](C2)OCCN1C (relative stereo) [SDZ NVI-085, (±)-trans-4-Methyl-6-methoxy-9-thiomethoxy-3,4,4a, 5,10,10a-hexahydro-2H-naphtho[2,3-b][1,4]oxazine] | – | 0 | – | 2000 | 794 | EC50 (human α2A adrenoceptor; agonist, inhibition of forskolin stimulated adenylyl cyclase, read-out: pEC50 α2A (converted)): > 100000 nM; Ki (human 5-HT1Dα receptor): 12.6 nM
COc1ccc(OC)c(C(O)CN)c1 (racemic) [ST-1059, (±)-2-Amino-1-(2, 5 dimethoxyphenyl) ethanol] | 2510 | 20 | 3980 | – | – | –
